Here are results for 20 compounds from patent US9271971B2, “Pyrido[3,4-B]indoles and methods of use” (Medivation Technologies, Inc., priority 2009, dated 2016).

Assay [1] addresses T1, human recombinant adrenergic α2A receptor (Homo sapiens, UniProt P08913).
T1 construct: expressed in transfected cells; host or cells: insect Sf9 cells
T1 sequence (P08913 1-465): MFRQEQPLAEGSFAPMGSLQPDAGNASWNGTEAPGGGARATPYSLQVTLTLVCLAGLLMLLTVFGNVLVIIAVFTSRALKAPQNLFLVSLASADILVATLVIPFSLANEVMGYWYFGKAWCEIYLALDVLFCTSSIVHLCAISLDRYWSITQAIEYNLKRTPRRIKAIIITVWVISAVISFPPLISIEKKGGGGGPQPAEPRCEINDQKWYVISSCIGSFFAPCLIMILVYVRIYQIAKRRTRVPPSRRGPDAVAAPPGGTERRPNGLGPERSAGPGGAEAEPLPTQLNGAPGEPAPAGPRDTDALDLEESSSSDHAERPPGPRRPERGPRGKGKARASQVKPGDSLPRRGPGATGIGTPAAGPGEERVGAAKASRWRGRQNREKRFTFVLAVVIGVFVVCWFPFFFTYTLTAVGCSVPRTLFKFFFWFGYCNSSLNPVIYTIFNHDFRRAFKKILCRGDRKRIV
As to the kind of experiment: Adrenergic α2A radioligand binding assay. Particulars: [3H]MK-912 specific binding; for inhibition at 1 µM: read-out: Percent Inhibition of ligand binding, Adrenergic (1 μM ligand conc.) α2A; for inhibition at 0.1 µM: read-out: Percent Inhibition of ligand binding, Adrenergic (0.1 μM ligand conc.) α2A. As to the method: To evaluate in radioligand binding assays the activity of compounds of the invention, human recombinant adrenergic α2A receptor expressed in insect Sf9 cells [Uhlen, S et al. J. Pharmacol. Exp. Ther. (1994), 271:1558] in a modified Tris-HCl buffer (50 mM Tris-HCl, pH 7.4, 12.5 mM MgCl2, 2 mM EDTA) was used. Compounds of invention were incubated with 1 nM [^3H]MK-912 for 60 min. at 25° C. MK912 was (2S-trans)-1,3,4,5′,6,6′,7,12b-octahydro-1′,3′-dimethyl-spiro[2H-benzofuro[2,3-a]quinolizine-2,4′(1′H)-pyrimidin]-2′(3′H)-one hydrochloride Non-specific binding was estimated in the presence of 10 μM WB-4101 (2-(2,6-dimethoxyphenoxyethyl)aminomethyl-1,4-benzodioxane hydrochloride). Receptor proteins were filtered and washed, the filters were then counted to determine [^3H]MK-912 specifically bound. Compounds were screened at 1 μM or lower, using 1% DMSO as vehicle. Compounds of the invention were tested in this biochemical assay. Biochemical assay results for representative compounds were presented as the percent inhibition of specific binding in Table 3.

Assay [2] concerns the target human recombinant dopamine D2L receptor (Homo sapiens, UniProt P14416). Kind of assay: Dopamine D2L radioligand binding assay. Conditions: [3H]Spiperone specific binding; for inhibition at 1 µM: read-out: Percent Inhibition of ligand binding, Dopamine (1 μM ligand conc.) D2L. As to the method:
To evaluate in radioligand binding assays the activity of compounds of the invention, human recombinant dopamine D2L receptor expressed in Chinese hamster ovary (CHO) cells [Grandy, D. K. et al. Proc. Natl. Acad. Sci. USA. (1989), 86:9762; Hayes, G. et al., Mol. Endocrinol. (1992), 6:920] in a modified Tris-HCl buffer (50 mM Tris-HCl, pH 7.4, 1.4 mM Ascorbic Acid, 0.001% BSA, 150 mM NaCl) was used. Compounds of the invention were incubated with 0.16 nM [^3H]Spiperone for 120 min. at 25° C. Non-specific binding was estimated in the presence of 10 μM Haloperidol. Receptor proteins were filtered and washed, the filters were then counted to determine [^3H]Spiperone specifically bound. Compounds were screened at 1 μM or lower, using 1% DMSO as vehicle. Biochemical assay results are presented as the percent inhibition of specific binding in Table 3.

Assay [3] concerns the target T2, human recombinant serotonin (5-Hydroxytryptamine) 5-HT2A receptor (Homo sapiens, UniProt P28223).
T2 construct: expressed in transfected cells; host or cells: Chinese hamster ovary (CHO-K1) cells
As to the kind of experiment: Serotonin 5-HT2A radioligand binding assay. Particulars: [3H]Ketanserin specific binding, read-out: Percent Inhibition of ligand binding, Serotonin (1 μM ligand concentration) 5-HT2A. As to the method: To evaluate in radioligand binding assays the activity of compounds of the invention, human recombinant serotonin (5-Hydroxytryptamine) 5-HT2A receptor expressed in Chinese hamster ovary (CHO-K1) cells [Bonhaus, D. W. et al., Br. J. Pharmacol. (1995), 115:622; Saucier, C. et al., J. Neurochem. (1997), 68:1998] in a 50 mM Tris-HCl buffer, pH 7.4, was used. Compounds of the invention were incubated with 0.5 nM [^3H]Ketanserin for 60 min. at 25° C. Non-specific binding was estimated in the presence of 1 μM Mianserin. Receptor proteins were filtered and washed, the filters were then counted to determine [^3H]Ketanserin specifically bound. Compounds were screened at 1 μM or lower, using 1% DMSO as vehicle. Biochemical assay results are presented as the percent inhibition of specific binding in Table 4.

Assay [4] concerns the target T3, human recombinant serotonin (5-Hydroxytryptamine) 5-HT2C receptor (Homo sapiens, UniProt P28335).
T3 construct: expressed in transfected cells; host or cells: Chinese hamster ovary (CHO-K1) cells
T3 sequence (P28335 33-458): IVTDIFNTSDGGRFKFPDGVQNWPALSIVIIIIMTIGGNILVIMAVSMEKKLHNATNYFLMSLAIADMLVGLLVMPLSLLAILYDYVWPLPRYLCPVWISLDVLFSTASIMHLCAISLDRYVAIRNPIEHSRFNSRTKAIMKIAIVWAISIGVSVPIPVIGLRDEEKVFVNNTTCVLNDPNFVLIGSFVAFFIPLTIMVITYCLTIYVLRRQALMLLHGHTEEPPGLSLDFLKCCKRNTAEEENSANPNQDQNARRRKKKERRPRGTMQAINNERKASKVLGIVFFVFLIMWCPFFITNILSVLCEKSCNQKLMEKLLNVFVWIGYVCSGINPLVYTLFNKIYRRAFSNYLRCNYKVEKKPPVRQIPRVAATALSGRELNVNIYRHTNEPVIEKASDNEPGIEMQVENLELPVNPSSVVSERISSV
Kind of assay: Serotonin 5-HT2C radioligand binding assay. Particulars: [3H]Mesulergine specific binding, read-out: Percent Inhibition of ligand binding, Serotonin (1 μM ligand concentration) 5-HT2C. As to the method:
To evaluate in radioligand binding assays the activity of compounds of the invention, human recombinant serotonin (5-Hydroxytryptamine) 5-HT2C receptor expressed in Chinese hamster ovary (CHO-K1) cells [Wolf, W. A. et al., J. Neurochem. (1997), 69:1449] in a modified Tris-HCl buffer (50 mM Tris-HCl, pH 7.4, 0.1% Ascorbic Acid, 10 μM Pargyline) was used. Compounds of the invention were incubated with 1 nM [^3H]Mesulergine for 60 min. at 25° C. Non-specific binding was estimated in the presence of 1 μM Mianserin. Receptor proteins were filtered and washed, the filters were then counted to determine [^3H]Mesulergine specifically bound. Compounds were screened at 1 μM or lower, using 1% DMSO as vehicle. Biochemical assay results are presented as the percent inhibition of specific binding in Table 4.

Molecules are shown by their SMILES.

Chain of human recombinant dopamine D2L receptor (P14416 whole entry): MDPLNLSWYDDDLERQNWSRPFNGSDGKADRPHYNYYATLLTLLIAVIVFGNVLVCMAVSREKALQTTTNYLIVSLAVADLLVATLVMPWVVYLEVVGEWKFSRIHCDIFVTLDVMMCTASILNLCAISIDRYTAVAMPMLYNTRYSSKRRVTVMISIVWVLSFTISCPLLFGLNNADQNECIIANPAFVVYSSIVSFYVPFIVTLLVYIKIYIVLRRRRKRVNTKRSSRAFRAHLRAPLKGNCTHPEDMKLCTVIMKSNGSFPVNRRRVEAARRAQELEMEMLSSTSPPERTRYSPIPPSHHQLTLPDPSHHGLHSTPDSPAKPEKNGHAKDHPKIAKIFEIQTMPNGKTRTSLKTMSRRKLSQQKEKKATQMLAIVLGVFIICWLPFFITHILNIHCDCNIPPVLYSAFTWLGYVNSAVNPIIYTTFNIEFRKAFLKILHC
T2 sequence (P28223 whole entry): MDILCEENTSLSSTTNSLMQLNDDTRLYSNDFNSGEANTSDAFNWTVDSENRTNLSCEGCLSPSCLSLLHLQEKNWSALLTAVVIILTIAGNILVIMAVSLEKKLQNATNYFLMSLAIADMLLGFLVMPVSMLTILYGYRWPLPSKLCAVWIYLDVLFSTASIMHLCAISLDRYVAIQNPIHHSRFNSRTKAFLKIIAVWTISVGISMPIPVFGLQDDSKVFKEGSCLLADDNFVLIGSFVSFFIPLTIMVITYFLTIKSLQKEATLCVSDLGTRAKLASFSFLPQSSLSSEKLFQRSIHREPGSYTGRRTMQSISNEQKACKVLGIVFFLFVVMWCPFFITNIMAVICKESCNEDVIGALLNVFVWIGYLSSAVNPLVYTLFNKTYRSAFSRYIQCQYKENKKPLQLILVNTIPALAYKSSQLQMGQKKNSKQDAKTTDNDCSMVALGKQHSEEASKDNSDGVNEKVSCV

Take `Cc1ccc2c(c1)c1c(n2CCc2ccc(C)nc2)CN2CCC1C2` (centres unmarked) [Compound 12]: the inhibition at 1 µM in assay [1] is -4%; in assay [2] it was 0%; in assay [3] it was 17%; in assay [4] it was 5%.
The matching figures for `COc1ccc(C(O)Cn2c3c(c4cc(C)ccc42)C2CCN(C3)C2)cc1F` (centres unmarked) [Compound 6]: 23%, -1%, 45% and 43%.
The corresponding values for `Cc1ccc2c(c1)c1c(n2CC(=O)N2CCCCC2)CN2CCC1C2` (centres unmarked) [Compound 7] are 9%, -3%, -3% and 2%.
The matching figures for `Cc1ccc(C(O)Cn2c3c(c4cc(C)ccc42)C2CCN(C3)C2)cc1` (centres unmarked) [Compound 5]: 44%, 6%, 81% and 53%.
With `Cc1ccc2c(c1)c1c(n2CC(=O)c2ccc(Cl)cc2)CN2CCC1C2` (centres unmarked) [Compound 29], the inhibition at 1 µM in assay [1] amounted to 89%; in assay [2], 0%; in assay [3], 56%; in assay [4], 74%.
For the compound `COc1ccc(C(O)Cn2c3c(c4cc(C)ccc42)C2CCN(C3)C2)cc1OC` (centres unmarked) [Compound 8], the inhibition at 1 µM in assay [1] is 1%; in assay [2] it was -16%; in assay [3], 25%; in assay [4], 12%.
For the compound `Cc1ccc2c(c1)c1c(n2CC(O)c2ccc(F)cc2)CN2CCC1C2` (centres unmarked) [Compound 31], the inhibition at 1 µM in assay [1] was 41%; in assay [2] it was 2%; in assay [3], 58%; in assay [4] it was 46%.
The corresponding values for `Cc1ccc2c(c1)c1c(n2CCc2ccncc2)CN2CCC1C2` (centres unmarked) [Compound 30] are 84%, 10%, 71% and 85%.
On to `Cc1ccc2c(c1)c1c(n2CCc2ccc(C(F)(F)F)nc2)CN2CCC1C2` (centres unmarked) [Compound 1], for which the inhibition at 1 µM is 25% in assay [1], 8% in assay [2], 18% in assay [3] and 10% in assay [4].
The corresponding values for `Cc1ccc2c(c1)c1c(n2CCc2cncc(F)c2)CN2CCC1C2` (centres unmarked) [Compound 9] are 2%, 9%, -6% and 4%.
The corresponding values for `Cc1ccc2c(c1)c1c(n2CC(C)(O)c2ccc(F)cc2)CN2CCC1C2` (centres unmarked) [Compound 2] are 54%, 7%, 76% and 57%.
As for `C/C(=C\n1c2c(c3cc(C)ccc31)C1CCN(C2)C1)c1ccc(F)cc1` (centres unmarked) [Compound 22], the inhibition at 1 µM in assay [1] was 93%; in assay [2], 21%; in assay [3], 97%; in assay [4], 96%. The “Percent Inhibition of ligand binding, Dopamine (1 μM ligand conc.) D2L” value in assay [2] came to 25%.
Turning to `C/C(=C\n1c2c(c3cc(C)ccc31)C1CCN(C2)C1)c1ccc(Cl)cc1Cl` (centres unmarked) [Compound 33], the inhibition at 0.1 µM in assay [1] was 13%. For the same compound, the inhibition at 1 µM in assay [1] was 66%; in assay [3], 78%; in assay [4] it was 95%. Further, the “Percent Inhibition of ligand binding, Dopamine (1 μM ligand conc.) D2L” value in assay [2] is −6%.
For `Cc1ccc2c(c1)c1c(n2CC(C)(O)c2ccc(F)c(Cl)c2)CN2CCC1C2` (centres unmarked) [Compound 18], the inhibition at 1 µM in assay [1] is 30%; in assay [2], -1%; in assay [3], 81%; in assay [4] it was 87%.
The matching figures for `Cc1ccc2c(c1)c1c(n2CC(=O)c2ccc(F)cc2)CN2CCC1C2` (centres unmarked) [Compound 28]: 86%, 1%, 61% and 83%.
The corresponding values for `Cc1ccc2c(c1)c1c(n2CC(C)(O)c2ccc(Cl)c(Cl)c2)CN2CCC1C2` (centres unmarked) [Compound 13] are 39%, -2%, 82% and 83%.
Take `Cc1ccc2c(c1)c1c(n2CC(O)c2ccccc2)CN2CCC1C2` (centres unmarked) [Compound 4]: the inhibition at 1 µM in assay [1] was 54%; in assay [2] it was 3%; in assay [3], 49%; in assay [4], 31%.
As for `Cc1ccc2c(c1)c1c(n2CC(=O)N2CCC(C)CC2)CN2CCC1C2` (centres unmarked) [Compound 25], the inhibition at 1 µM in assay [1] is -7%; in assay [2], 9%; in assay [3] it was 2%; in assay [4], 15%.
`Cc1ccc2c(c1)c1c(n2CC(=O)c2ccccc2)CN2CCC1C2` (centres unmarked) [Compound 21]: the inhibition at 1 µM in assay [1] was 5%; in assay [2] it was -2%; in assay [3], 16%; in assay [4] it was -4%.
In the case of `C/C(=C\n1c2c(c3cc(C)ccc31)C1CCN(C2)C1)c1ccc(Cl)cc1` (centres unmarked) [Compound 32], the inhibition at 0.1 µM in assay [1] is 45%. Further, the inhibition at 1 µM was 96% in assay [1], -12% in assay [2], 86% in assay [3] and 92% in assay [4].
